Measured values reported in PubChem BioAssay AID1645865 (Buhrlage Lab, Dana-Farber Cancer Institute and Novartis …, 2021).
Activity calls are given as the source filed them.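 Rule for the calls: active = maximal inhibition of the USP30 enzyme reaching 30% or more across the dose series; inactive = the rest.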

The compounds below were run against Ubiquitin carboxyl-terminal hydrolase 30 (Homo sapiens) (UniProt Q70CQ3) (assay: ubiquitin-specific protease 30 DUB inhibitors, concentration-effect, biochemical, validation of primary actives (AID 1645865)). Settings: purified USP30, Ub-rhodamine cleavage, fluorescence, 2 h.
Ubiquitin carboxyl-terminal hydrolase 30 (Homo sapiens), sequence (Q70CQ3 whole entry, looked up): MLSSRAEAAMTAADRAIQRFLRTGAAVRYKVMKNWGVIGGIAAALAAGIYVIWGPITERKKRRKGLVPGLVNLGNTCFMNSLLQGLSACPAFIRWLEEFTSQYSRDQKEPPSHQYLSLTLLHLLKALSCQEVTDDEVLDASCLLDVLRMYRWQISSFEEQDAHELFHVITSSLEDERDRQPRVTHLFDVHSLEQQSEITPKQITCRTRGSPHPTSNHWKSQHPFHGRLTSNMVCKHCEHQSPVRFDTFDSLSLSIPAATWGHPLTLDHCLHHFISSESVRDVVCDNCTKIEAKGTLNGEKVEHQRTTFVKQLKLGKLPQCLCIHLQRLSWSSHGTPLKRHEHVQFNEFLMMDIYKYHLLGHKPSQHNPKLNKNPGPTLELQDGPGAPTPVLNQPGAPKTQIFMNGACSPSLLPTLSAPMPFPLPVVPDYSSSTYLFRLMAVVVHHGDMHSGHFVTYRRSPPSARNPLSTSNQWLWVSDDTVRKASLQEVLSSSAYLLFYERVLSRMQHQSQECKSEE
Work on `CCOc1ccccc1C(=O)Oc1ccc2c(C)cc(=O)oc2c1` yielded an IC50 of 23.1 µM. `CCOc1ccc(-n2c(C)cc(/C=C(\C#N)c3nc4ccccc4[nH]3)c2C)cc1` was tested, and the IC50 was > 50 µM (inactive). With `CC1(C(=O)NCc2ccccc2)Cn2c(cc3ccccc32)C(=O)N1Cc1ccccc1` (stereo unspecified) the IC50 was > 50 µM (inactive). For `Cc1ccc(C)c(-n2c(C)cc(/C=C3/C(=N)N4C(c5ccc(F)cc5)=CSC4=NC3=O)c2C)c1`, the IC50 was > 50 µM (inactive). For `CC1CCCCN1c1nc(F)c2c(c1F)S(=O)(=O)CCN2Cc1ccccc1` (stereo unspecified), the IC50 was > 50 µM (inactive). Compound `Cc1nc(-c2noc3ccc(C(=O)Nc4cccnc4)cc23)cs1` has an IC50 of 14.6 µM. `CCCc1nc2sc3c(NCCCN4CCOCC4)ncnc3c2c2c1CCC2` was tested, and the IC50 was > 50 µM (inactive). `CCCC(=O)Nc1nc2ccc(CCC(=O)NCc3ccc(F)cc3)cc2s1` gave an IC50 of 34.1 µM. `C[C@H](NC(=O)Cc1ccccc1F)c1nc2cc(-c3ccccc3F)ncn2n1` was tested, and the IC50 was > 50 µM (inactive). For `COc1ccc(-c2nc(SCC(=O)Nc3ccc(C(C)=O)cc3)n[nH]2)cc1`, the IC50 was 11.1 µM. Work on `O=C(Nc1ccccc1Cl)N(Cc1cc2cc3c(cc2[nH]c1=O)OCCO3)C1CCCCC1` yielded an IC50 of 35.5 µM. For `C/C=C\C1=CC(=O)[C@]23C[C@H]2[C@]2(C)CO[C@@]1(O)[C@@]3(O)O2`, the IC50 was > 50 µM (inactive). In the case of `Cc1c(-c2ccccc2)oc2c(C(=O)OCC(=O)Nc3ccccc3F)cccc2c1=O`, the IC50 is reported as > 50 µM (inactive). `CCC(=O)Nc1ccc(-c2nc(Cn3cc(C)cn3)c(C)o2)cc1` was tested, and the IC50 was > 50 µM (inactive). With `Nc1ccccc1SC(CC(=O)c1ccc(Cl)cc1)c1ccsc1` (stereo unspecified) the IC50 was > 50 µM (inactive). In the case of `O=C(Cn1c(=O)nc(-c2ccccc2)c2ccccc21)NCc1ccc2c(c1)OCO2`, the IC50 is reported as 26.2 µM. With `COc1cccc2c1OCC(C(=O)NCc1ccc(F)cc1)=C2` the IC50 was > 50 µM (inactive). For `Cc1cccc(NC(=O)Cn2c(-c3cnccn3)nc(C)c(C)c2=O)c1C`, the IC50 was > 50 µM (inactive). With `Cc1cc(O)c(Oc2cc(C)cc(O)c2O)c(O)c1` the IC50 was 33.1 µM. Compound `Cc1nc(SCC(=O)Nc2cc(Cl)ccc2C)c2oc3ccccc3c2n1` has an IC50 of 1.22 µM. In the case of `Cc1ccccc1NC(=O)c1nc(-c2cn(Cc3ccc(F)cc3)nn2)no1`, the IC50 is reported as 3.46 µM. In the case of `N#Cc1ccccc1Cn1c(=O)n(CCCCC(=O)NCCc2ccccc2)c(=O)c2ccccc21`, the IC50 is reported as 14.4 µM. In the case of `CCN1C[C@@H]2C[C@]2(c2ccccc2OC)C(=O)c2ncccc21`, the IC50 is reported as > 50 µM (inactive). With `CCn1cc(NC(=O)CN2CCC3(CC=CCOC3)CC2)c(C)n1` the IC50 was > 50 µM (inactive). In the case of `Cc1ccc(C(=O)NCc2ccc(C(=O)Nc3cccc(C)c3)o2)cc1`, the IC50 is reported as 26.9 µM. `COc1ccc(NC(=O)C2c3ccccc3C(=O)N(C3CCCC3)C2c2cccs2)cc1OC` (stereo unspecified) gave an IC50 of 36.2 µM. In the case of `Cc1ccc(NC(=O)Cn2c(-n3nc(C)cc3C)nc3c(c2=O)CCCC3)c(C)c1`, the IC50 is reported as 25.6 µM. Work on `COc1ccccc1CNC(=O)C1CCCN(c2nc3ccsc3c(=O)s2)C1` (stereo unspecified) yielded an IC50 of 3.45 µM. With `O=C(OCCCN1C(=O)c2cccc3c(N4CCCCC4)ccc(c23)C1=O)c1ccccn1` the IC50 was > 50 µM (inactive). In the case of `COc1ccc(C(C)NC(=O)c2cnc(-c3ccccc3)nc2-c2ccncc2)cc1` (stereo unspecified), the IC50 is reported as > 50 µM (inactive). `CCCCc1ccc(-c2cc(C(=O)NCCN3CCOCC3)c3cc(Br)ccc3n2)cc1` gave an IC50 of 2.31 µM. In the case of `O=C(NC1CCN(c2nc(-c3cccnc3)nc3ccccc23)CC1)c1cccnc1`, the IC50 is reported as > 50 µM (inactive). `CNC(=O)CC1NC(=O)c2csc(n2)-c2ccc(-c3nc(C4=NC(C(=O)N5CCCC5C(N)=O)CO4)cs3)nc2-c2csc(n2)-c2csc(n2)C(C(O)c2ccccc2)NC(=O)CNC(=O)c2nc(sc2COC)C(C(C)C)NC(=O)c2nc1sc2C` (stereo unspecified) was tested, and the IC50 was > 50 µM (inactive). In the case of `COc1cc(C(=O)Nc2ccc(-c3csc(C)n3)cc2)cc(OC)c1OC`, the IC50 is reported as > 50 µM (inactive). With `CCOC(=O)C1CCN(C(=O)c2ccc3c(c2)NC(=O)C2CCCN32)CC1` (stereo unspecified) the IC50 was > 50 µM (inactive). For `COc1ccc(OCCn2c(C3CC(=O)N(c4cccc(C)c4)C3)nc3ccccc32)cc1` (stereo unspecified), the IC50 was 0.356 µM. With `CCn1ccc2c(cc(C(=O)Nc3ccccc3F)n2C)c1=O` the IC50 was > 50 µM (inactive). In the case of `O=c1ncn(Cc2ccc3c(c2)OCO3)cc1-c1ncc(C(F)(F)F)cc1Cl`, the IC50 is reported as 48.2 µM. For `Cc1sc2ncn3c(=O)n(CC(=O)Nc4ccc(F)c(Cl)c4)nc3c2c1C`, the IC50 was 2.07 µM. For `NS(=O)(=O)c1cccc(NS(=O)(=O)c2ccc(/C=C/C(=O)OCC(=O)c3ccc(Br)cc3)cc2)c1`, the IC50 was > 50 µM (inactive). In the case of `Fc1cnc(N2CC[C@H]3CO[C@H](CNc4ncccn4)[C@H]3C2)nc1`, the IC50 is reported as > 50 µM (inactive). In the case of `NC(=O)c1nc(-c2cccc(F)c2)nc2c1[nH]c(=O)n2C1CCCCC1`, the IC50 is reported as 3.78 µM. In the case of `Cc1noc(NS(=O)(=O)c2ccc(NC(=O)CSc3ccc4ccccc4c3)cc2)c1C`, the IC50 is reported as > 50 µM (inactive). With `COc1cc2c(cc1OC)-c1cc(NCc3cc(OC)c(OC)c(OC)c3)nc(=O)n1CC2` the IC50 was > 50 µM (inactive). `Cc1ccc(S(=O)(=O)N2CCC3(CC2)NC(=O)c2ccccc2N3)cc1C` was tested, and the IC50 was 27.2 µM. `COc1ccc(NC(=O)COc2cc(CSc3ccccc3)ncc2OC)cc1` showed an IC50 of 25.7 µM.
